Test results as given in patent publication US20050032873A1, “3-Amino chroman and 2-amino tetralin derivatives” (Wyeth, priority 2003, published 2005).
Where a name gives a salt, the structure may show the parent alone.

Compound | melting point
CCCN(CCCc1c[nH]c2ccc(F)cc12)[C@@H]1CCc2cccc(OC)c2C1 (as salt: hydrochloride) [Compound 47b, (2R)-N-[3-(5-fluoro-1H-indol-3-yl)propyl]-8-methoxy-N-propyl-1,2,3,4-tetrahydronaphthalen-2-amine] | 110 °C (dec.)
CCCN(CCc1c[nH]c2ccc(F)cc12)C1CCc2cccc(OC)c2C1 (stereo not shown) (as salt: hydrochloride) [Compound 48, N-[2-(5-fluoro-1H-indol-3-yl)ethyl]-N-(8-methoxy-1,2,3,4-tetrahydronaphthalen-2-yl)-N-propylamine] | 105 °C (dec.)
CCN(CCc1c[nH]c2ccc(F)cc12)C1CCc2cccc(OC)c2C1 (stereo not shown) (as salt: hydrochloride) [Compound 49, N-ethyl-N-[2-(5-fluoro-1H-indol-3-yl)ethyl]-N-(8-methoxy-1,2,3,4-tetrahydronaphthalen-2-yl)amine] | 114 °C (dec.)
CCCN(CCCc1c[nH]c2ccccc12)C1CCc2cccc(OC)c2C1 (stereo not shown) (as salt: hydrochloride) [Compound 50, N-[3-(1H-indol-3-yl)propyl]-8-methoxy-N-propyl-1,2,3,4-tetrahydronaphthalen-2-amine] | 108 °C (dec.)
CCCN(CCCc1c[nH]c2ccc(F)cc12)C1CCc2c(F)ccc(OC)c2C1 (stereo not shown) (as salt: hydrochloride) [Compound 51, N-[3-(5-fluoro-1H-indol-3-yl)propyl]-N-(5-fluoro-8-methoxy-1,2,3,4-tetrahydronaphthalen-2-yl)-N-propylamine] | 107 °C (dec.)
NC(=O)c1ccc(F)c2c1CC(N(CCCc1c[nH]c3cc(F)ccc13)CC1CC1)CO2 (stereo not shown) (as salt: hydrochloride) [Compound 52a, 3-{(cyclopropylmethyl)[3-(6-fluoro-1H-indol-3-yl)propyl]amino}-8-fluorochromane-5-carboxamide] | 123 °C (dec.)
NC(=O)c1ccc(F)c2c1CC(N(CCCc1c[nH]c3cc(F)ccc13)C1CCC1)CO2 (stereo not shown) (as salt: hydrochloride) [Compound 53, 3-{cyclobutyl[3-(6-fluoro-1H-indol-3-yl)propyl]amino}-8-fluorochromane-5-carboxamide] | 126 °C (dec.)
O=C(O)c1ccc(F)c2c1CC(N(CCCc1c[nH]c3ccc(F)cc13)C1CCC1)CO2 (stereo not shown) (as salt: hydrochloride) [Compound 56, 3-{cyclobutyl[3-(5-fluoro-1H-indol-3-yl)propyl]amino}-8-fluorochromane-5-carboxylic acid] | 140 °C (dec.)
COC(=O)c1ccc(F)c2c1CC(NCCCCc1c[nH]c3ccc(F)cc13)CO2 (stereo not shown) (as salt: hydrochloride) [Compound 57, Methyl 8-fluoro-3-{[4-(5-fluoro-1H-indol-3-yl)butyl]amino}chromane-5-carboxylate] | 228 °C (dec.)
COC(=O)c1ccc(F)c2c1C[C@H](NCCCCc1c[nH]c3ccc(F)cc13)CO2 (as salt: hydrochloride) [Compound 57a, Methyl (3S)-8-fluoro-3-{[4-(5-fluoro-1H-indol-3-yl)butyl]amino}chromane-5-carboxylate] | 240 °C (dec.)
COC(=O)c1ccc(F)c2c1C[C@@H](NCCCCc1c[nH]c3ccc(F)cc13)CO2 (as salt: hydrochloride) [Compound 57b, methyl (3R)-8-fluoro-3-{[4-(5-fluoro-1H-indol-3-yl)butyl]amino}chromane-5-carboxylate] | 240 °C (dec.)
COC(=O)c1ccc(F)c2c1CC(N(CCCCc1c[nH]c3ccc(F)cc13)C1CCC1)CO2 (stereo not shown) (as salt: hydrochloride) [Compound 58, Methyl 3-{cyclobutyl[4-(5-fluoro-1H-indol-3-yl)butyl]amino}-8-fluorochromane-5-carboxylate] | 115 °C (dec.)
COC(=O)c1ccc(F)c2c1C[C@H](N(CCCCc1c[nH]c3ccc(F)cc13)C1CCC1)CO2 (as salt: hydrochloride) [Compound 58a, Methyl (3S)-3-{cyclobutyl[4-(5-fluoro-1H-indol-3-yl)butyl]amino}-8-fluorochromane-5-carboxylate] | 209 °C (dec.)
